Measured values reported in US12077501B2, “Compounds and compositions for intracellular delivery of agents” (ModernaTX, Inc., priority 2017, dated 2024).

Columns and labels:
[1] = Encapsulation efficiency of RNA (QUANT-IT RIBOGREEN RNA assay); assay type: physicochemical; settings: row marked **: Formulated with lipid:Chol:DOPE:PEG 1 30:38.5:30:1.5
Summary of the method: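 Samples diluted to about 5 μg/mL RNA in TE buffer pH 7.5, treated with buffer or 2% Triton X-100 for 15 min at 37° C, then stained with RiboGreen (1:100). Fluorescence at about 480/520 nm, blank-subtracted; free RNA fraction is intact over Triton-disrupted signal.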

[2] = Lipid clearance: % dose remaining, Tables 7c and 8b-8e (species not given); assay type: in vivo
Summary of the method: (§1)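 Nanoparticle compositions of the disclosed lipids given intravenously and benchmarked against MC3. Protein expression reported as AUC (p/s*h) and clearance as % dose remaining in liver of CD-1 mice; hEPO expression in CD-1 mice measured at 0.5 mpk.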

[3] = Characteristics of nanoparticle compositions formulated with PEG-DMG or PEG 1 over 4 weeks; assay type: physicochemical
Method: Formulations were prepared according to Table 13 and included an mRNA encoding hEPO and the particle size, polydispersity index and encapsulation efficiency were recorded on day 1 (week 1), day 8 (week 2), day 15 (week 3), and day 22 (week 4), of the study.

[4] = Particle size and polydispersity index of nanoparticle compositions (Zetasizer Nano ZS); assay type: physicochemical; settings: row marked **: Formulated with lipid:Chol:DOPE:PEG 1 30:38.5:30:1.5
Method: A Zetasizer Nano ZS (Malvem Instruments Ltd, Malvem, Worcestershire, UK) can be used to determine the particle size, the polydispersity index (PDI) and the zeta potential of the nanoparticle compositions in 1×PBS in determining particle size and 15 mM PBS in determining zeta potential.

[5] = test system: hEPO expression; experiment: hEPO (miR126 + miR142) mRNA expression, Tables 8b-8e; assay type: in vivo
[6] = Lipid clearance: % dose remaining in liver of CD-1 mice; assay type: in vivo; settings: intravenous, 0.5 mg/kg, CD-1 mouse, Table 8a
Summary of the method: as §1

[7] = test system: hEPO expression; experiment: hEPO expression in CD-1 mice compared with MC3; assay type: in vivo
Summary of the method: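 Nanoparticle compositions containing the test compound were dosed to CD-1 mice at 0.5 mpk, and hEPO expression was measured. Clearance data were collected from the same compositions.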

[8] = Purity at start and after storage for 65 h at 25 °C or 37 °C; assay type: physicochemical
[9] = test system: hEPO expression; experiment: hEPO expression in Cynomolgus monkeys; assay type: in vivo; settings: 0.05 mg/kg
Method: Nanoparticle compositions of the disclosure, including an mRNA encoding hEPO and comprising a miR binding site, were administered to Cynomolgus monkeys at a dose of 0.05 mg/kg via a 60 min intravenous infusion.

[10] = test system: hepatocytes and Kupffer cells; experiment: Mouse liver immunohistochemistry (IHC) with GFP mRNA (FIGS. 11A, 11B); assay type: in vivo; settings: LDLR knockout mouse liver, 8h after intravenous administration, 0.5 mpk (FIG. 11B), in contrast to MC3
From the text: FIGS. 11A and 11B are a pair of images comparing the results of a mouse liver immunohistochemistry (IHC) using mRNA expressing green fluorescent protein (GFP) after administration of nanoparticle compositions containing Compound 4 and MC3.

[11] = test system: LDL levels; experiment: LDL levels in LDLr-/- mice relative to untreated; assay type: in vivo; settings: intravenous, Table 7b
[12] = test system: hEPO; experiment: hEPO expression in rats after i.v. administration of nanoparticle compositions (FIGS. 8A, 8B); assay type: in vivo, rat; settings: rats (FIGS. 8A and 8B)
From the text: PBS (phosphate buffered saline) is used as control. FIG. 8A compares the hEPO concentration after administration of nanoparticle compositions containing Compound 23, Compound 11, KL22, and MC3 at 2 mpk, i.v. administration. […] FIG. 8B illustrates the results of a dose response study using Compound 20, KL22, and MC3 at dose of 0.2, 0.5 and 1 mpk. […] In FIG. 8A, the numbers 1-5 refer to compositions containing the following: 1: Compound 23, 2: Compound 11, 3: KL22; 4: MC3; 5: PBS. In FIG. 8B, the numbers […] refer to compositions containing the following: 1: Compound 20, 0.2 mpk; 2: Compound 20, 0.5 mpk; 3: Compound 20, 1 mpk; 4: KL22, 0.2 mpk; 5: KL22, 0.5 mpk; 6: KL22, 1 mpk; 7: MC3, 0.2 mpk; 8: MC3, 0.5 mpk; 9: MC3, 1 mpk; 10: PBS.

[13] = test system: rats; experiment: Tolerability / toxicity in rats (FIGS. 8A, 8B); assay type: in vivo; settings: 2 mg/kg dose
[14] = Week 1, 40:20:38.5:1.5 Lipid:DOPE:Chol:PEG 1
[15] = Week 1, 40:20:38.5:1.5 Lipid:DOPE:Chol:PEG-DMG
[16] = Week 2, 40:20:38.5:1.5 Lipid:DOPE:Chol:PEG 1
[17] = Week 2, 40:20:38.5:1.5 Lipid:DOPE:Chol:PEG-DMG
[18] = Week 3, 40:20:38.5:1.5 Lipid:DOPE:Chol:PEG 1
[19] = Week 3, 40:20:38.5:1.5 Lipid:DOPE:Chol:PEG-DMG
[20] = Week 4, 40:20:38.5:1.5 Lipid:DOPE:Chol:PEG 1
[21] = Week 4, 40:20:38.5:1.5 Lipid:DOPE:Chol:PEG-DMG

Structure (SMILES): CCCCCCCCCN(CCCCCCCCC)CCN(CCCCCCCCC)CC(=O)N1CCN(C(=O)CN(CCCCCCCCC)CCCCCCCCC)CC1 [Compound 4, 2-(Dinonylamino)-1-(4-(N-(2-(dinonylamino)ethyl)-N-nonylglycyl)piperazin-1-yl)ethan-1-one]
- EE (%) ([1]; Table 1e): 98.6%
- EE (%) ([1]; Table 1f): 98.8%
- EE (%) ([1]; Table 1d): 99.1%
- % Dose Remaining (liver, 24 h) ([2]; Table 8b): 39.23%
- % Dose Remaining (liver, 24 h) ([2]; Table 8c): 37.05%
- % Dose Remaining (liver, 24 h) ([2]; Table 8d): 43.02%
- EE (%) [3, 14]: 98%
- PDI [3, 14]: 0.22
- Size (nm) [3, 14]: 101.5 nm
- EE (%) [3, 15]: 99%
- PDI [3, 15]: 0.23
- Size (nm) [3, 15]: 79.9 nm
- EE (%) [3, 16]: 97%
- PDI [3, 16]: 0.21
- Size (nm) [3, 16]: 104.1 nm
- EE (%) [3, 17]: 99%
- PDI [3, 17]: 0.21
- Size (nm) [3, 17]: 79.9 nm
- EE (%) [3, 18]: 97%
- PDI [3, 18]: 0.2
- Size (nm) [3, 18]: 100.4 nm
- EE (%) [3, 19]: 99%
- PDI [3, 19]: 0.22
- Size (nm) [3, 19]: 77.3 nm
- EE (%) [3, 20]: 97%
- PDI [3, 20]: 0.2
- Size (nm) [3, 20]: 101.9 nm
- EE (%) [3, 21]: 99%
- PDI [3, 21]: 0.21
- Size (nm) [3, 21]: 73.6 nm
- PDI ([4]; Table 1e): 0.19
- Size (nm) ([4]; Table 1e): 99.2 nm
- PDI ([4]; Table 1f): 0.21
- Size (nm) ([4]; Table 1f): 111.5 nm
- PDI ([4]; Table 1d): 0.23
- Size (nm) ([4]; Table 1d): 101.5 nm
- AUC ([5]; Table 8b): 6.7e+07 pg·h/mL
- AUC ([5]; Table 8c): 8.47e+07 pg·h/mL
- AUC ([5]; Table 8d): 1.83e+09 pg·h/mL
- AUC (mIU/mL*h) ([5]; lipid:Chol:PEG 1 50:47.5:2.5, Table 8e): 2.76E+08 mIU/mL*h
- % Dose Remaining 24 hr [6]: 60.36%
- AUC (p/s*h) CD-1 mice 0.5 mpk ([7]; intramuscular, title: 0.01 mg/kg, Table 7f): 366551 p/s*h
- AUC (p/s*h) CD-1 mice 0.5 mpk ([7]; subcutaneous, 0.5 mg/kg, Table 7g): 859874 p/s*h
- Purity % 25° C. no shaking t = 65 h ([8]; after storage for 65 h at 25° C., no shaking): 99%
- Purity % 37° C. shaking t = 65 h ([8]; after storage for 65 h at 37° C., shaking): 99%
- Purity % t = 0 h ([8]; beginning of the study, 25° C.): 98%
- levels of hEPO expression compared to MC3 [9]: improved levels of hEPO expressions
- GFP protein expression in liver cell types (IHC) [10]: less protein expression in Kupffer cells

Structure (SMILES): CCCCCCCCCCCCN(CCCCCCCCCCCC)CCN(CCCCCCCCCCCC)CCN1CCN(CCN(CCCCCCCCCCCC)CCCCCCCCCCCC)CC1 [KL22, N1-[2-(didodecylamino)ethyl]-N1,N4,N4-tridodecyl-1,4-piperazinediethanamine, reference compound]
- LDL levels lipid/untreated LDLr−/− mice 0.5 mpk, LDLr [11]: 0.51
- hEPO expression levels in rats [12]: do not express hEPO in rats
- toxicity [13]: toxic
